pIC50: −log10 of the molar value.
Assays:
[1] = target: T1, human TLR7 (Homo sapiens, UniProt Q9NYK1); assay: TLR7 inhibition reporter assay (HEK-Blue cells, SEAP reporter, gardiquimod stimulation); format: cell-based; settings: HEK-Blue cells overexpressing human TLR7, gardiquimod 7.5 μM
T1 construct: host or cells: HEK-Blue cells
T1 sequence (Q9NYK1 27-1049): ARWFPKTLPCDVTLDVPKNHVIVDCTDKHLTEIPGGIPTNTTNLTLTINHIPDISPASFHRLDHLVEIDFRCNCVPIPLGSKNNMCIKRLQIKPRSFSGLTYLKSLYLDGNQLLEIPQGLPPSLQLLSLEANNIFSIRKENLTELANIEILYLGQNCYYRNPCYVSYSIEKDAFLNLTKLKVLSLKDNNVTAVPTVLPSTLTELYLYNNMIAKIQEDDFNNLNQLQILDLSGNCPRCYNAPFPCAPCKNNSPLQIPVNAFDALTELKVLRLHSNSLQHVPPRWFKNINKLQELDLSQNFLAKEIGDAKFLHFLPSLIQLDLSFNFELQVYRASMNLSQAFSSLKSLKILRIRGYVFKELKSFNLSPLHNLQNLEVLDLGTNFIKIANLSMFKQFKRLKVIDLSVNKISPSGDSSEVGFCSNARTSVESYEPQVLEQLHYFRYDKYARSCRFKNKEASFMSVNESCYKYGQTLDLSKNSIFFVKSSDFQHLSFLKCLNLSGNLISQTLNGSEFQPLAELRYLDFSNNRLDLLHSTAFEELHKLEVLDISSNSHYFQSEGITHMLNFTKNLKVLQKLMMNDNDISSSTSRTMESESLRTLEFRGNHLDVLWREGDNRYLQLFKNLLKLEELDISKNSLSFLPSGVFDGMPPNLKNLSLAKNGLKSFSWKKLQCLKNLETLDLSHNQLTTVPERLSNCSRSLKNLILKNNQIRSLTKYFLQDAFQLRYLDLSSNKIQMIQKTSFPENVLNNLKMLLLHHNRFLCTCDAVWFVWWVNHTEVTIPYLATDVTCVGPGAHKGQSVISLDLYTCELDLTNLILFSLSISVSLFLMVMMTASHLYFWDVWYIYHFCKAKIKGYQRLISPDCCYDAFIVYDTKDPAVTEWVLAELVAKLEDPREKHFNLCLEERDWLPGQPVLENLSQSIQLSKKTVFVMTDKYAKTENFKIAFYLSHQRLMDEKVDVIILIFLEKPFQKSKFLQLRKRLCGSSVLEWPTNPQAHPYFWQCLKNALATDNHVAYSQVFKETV
How it was run: (§1)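 HEK-Blue reporter cells (15,000/well TLR7, 20,000 TLR8) exposed to compound over 0.05 nM–50 μM, agonist-stimulated (R848 for TLR8, gardiquimod for TLR7), 22 h at 37 °C, 5% CO2. SEAP read with HEK-Blue Detection; % inhibition relative to agonist-plus-DMSO and known-inhibitor controls.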

[2] = target: T2, human TLR8 (Homo sapiens, UniProt Q9NR97); assay: TLR8 inhibition reporter assay (HEK-Blue cells, SEAP reporter, R848 stimulation); format: cell-based; settings: HEK-Blue cells overexpressing human TLR8, R848 15.9 μM
T2 construct: host or cells: HEK-Blue cells
T2 sequence (Q9NR97 27-1041): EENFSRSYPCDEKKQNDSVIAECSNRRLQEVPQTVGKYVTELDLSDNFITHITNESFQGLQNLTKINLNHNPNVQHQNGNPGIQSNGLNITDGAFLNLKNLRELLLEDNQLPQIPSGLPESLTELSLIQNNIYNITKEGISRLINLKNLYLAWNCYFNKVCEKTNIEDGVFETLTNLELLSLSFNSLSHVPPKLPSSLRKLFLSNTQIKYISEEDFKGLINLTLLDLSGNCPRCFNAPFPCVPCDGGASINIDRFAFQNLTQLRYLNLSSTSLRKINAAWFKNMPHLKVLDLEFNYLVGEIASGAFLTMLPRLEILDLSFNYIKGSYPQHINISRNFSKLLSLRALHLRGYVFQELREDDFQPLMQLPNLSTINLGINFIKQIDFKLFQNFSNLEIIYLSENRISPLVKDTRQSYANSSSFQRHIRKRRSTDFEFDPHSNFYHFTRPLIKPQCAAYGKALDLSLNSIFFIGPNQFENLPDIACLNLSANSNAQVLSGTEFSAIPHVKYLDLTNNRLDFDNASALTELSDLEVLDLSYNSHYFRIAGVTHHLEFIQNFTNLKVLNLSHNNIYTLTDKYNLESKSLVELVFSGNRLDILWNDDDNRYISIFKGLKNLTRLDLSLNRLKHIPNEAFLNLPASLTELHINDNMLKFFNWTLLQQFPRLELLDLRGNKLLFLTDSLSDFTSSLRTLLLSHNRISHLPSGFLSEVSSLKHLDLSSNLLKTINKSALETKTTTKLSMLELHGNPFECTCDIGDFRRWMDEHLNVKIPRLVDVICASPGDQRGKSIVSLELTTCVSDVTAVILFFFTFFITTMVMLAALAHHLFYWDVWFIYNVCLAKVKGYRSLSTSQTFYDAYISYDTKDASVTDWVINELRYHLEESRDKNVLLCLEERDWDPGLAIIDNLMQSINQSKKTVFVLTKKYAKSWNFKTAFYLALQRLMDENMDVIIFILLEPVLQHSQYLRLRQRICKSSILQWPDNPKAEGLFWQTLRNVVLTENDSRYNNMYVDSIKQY
How it was run: as §1

Structure (SMILES)	pIC50 [1]	pIC50 [2]
COc1ccc(-c2[nH]c3ccc(C4CCN(C(=O)CN5CCC[C@H](C(=O)NCCNC(C)=O)C5)CC4)cc3c2C(C)C)cc1OC [Example 295, (S)—N-(2-acetamidoethyl)-1-(2-(4-(2-(3,4-dimethoxyphenyl)-3-isopropyl-1H-indol-5-yl)piperidin-1-yl)-2-oxoethyl) piperidine-3-carboxamide]	7.30	7.66
COc1ccc(-c2[nH]c3ccc(C4CCN(C(=O)CN5CCC[C@@H](C(=O)N6CCC(CCO)CC6)C5)CC4)cc3c2C(C)C)cc1OC [Example 306, (R)-1-(4-(2-(3,4-dimethoxyphenyl)-3-isopropyl-1H-indol-5-yl)piperidin-1-yl)-2-(3-(4-(2-hydroxyethyl)piperidine-1-carbonyl)piperidin-1-yl)ethan-1-one]	6.82	7.14
COc1ccc(-c2[nH]c3ccc(C4CCN(Cc5cncn5C)CC4)cc3c2C(C)C)cc1OC [Example 258, 2-(3,4-dimethoxyphenyl)-3-isopropyl-5-(1-((1-methyl-1H-imidazol-5-yl)methyl)piperidin-4-yl)-1H-indole]	7.74	7.77
COc1ccc(-c2[nH]c3ccc(C4CCN(C(=O)CNC[C@H](O)CO)CC4)cc3c2C(C)C)cc1OC [Example 235, (S)-2-((2,3-dihydroxypropyl)amino)-1-(4-(2-(3,4-dimethoxyphenyl)-3-isopropyl-1H-indol-5-yl)piperidin-1-yl)ethan-1-one]	7.82	7.41
COc1ccc(-c2[nH]c3ccc(C4CCN(CC(=O)N5CCN(C)CC5)CC4)cc3c2C(C)C)cc1OC [Example 274, 2-(4-(2-(3,4-dimethoxyphenyl)-3-isopropyl-1H-indol-5-yl)piperidin-1-yl)-1-(4-methylpiperazin-1-yl) ethan-1-one]	7.17	6.64

Reference: patent publication US11180474B2 (BRISTOL-MYERS SQUIBB COMPANY, priority 2016, dated 2021)
